The target of one assay is T1, BRD4 long (Homo sapiens, UniProt O60885).
T1 construct: endogenous in cells; host or cells: HEK293T
Put plainly: BRD4 (long) degradation assay, Western blotting. The format is cell-based. On the procedure: (§1) C33A cells were purchased from American Type Culture Collection (ATCC) and were cultured in Dulbecco's Modified Eagle Medium (DMEM) containing 10% (v/v) fetal bovine serum (FBS) and maintained at 37° C. with 5% CO2. 22RV1 cells were purchased from the ATCC and were cultured in RPMI-1640 Medium containing 10% (v/v) FBS and maintained at 37° C. with 5% CO2. HEK293T cells were obtained from the UC Berkeley Cell Culture Facility and were cultured in DMEM containing 10% (v/v) FBS and maintained at 37° C. with 5% CO2. K562 cells were obtained from the UC Berkeley Cell Culture Facility and were cultured in Iscove's Modified Dulbecco's Medium (IMDM) containing 10% (v/v) FBS and maintained at 37° C. with 5% CO2. MV-4-11 cells were obtained from the ATCC and were cultured in IMDM containing 10% (v/v) FBS and maintained at 37° C. with 5% CO2. A549 cells were obtained from the ATCC and were cultured in F-12K Medium containing 10% (v/v) FBS and maintained at 37° C. with 5% CO2. Mino cells were obtained from the ATCC and were cultured in RPMI-1640 Medium containing 10% (v/v) FBS and maintained at 37° C. with 5% CO2. LNCaP cells were obtained from the ATCC and were cultured in RPMI-1640 Medium containing 10% (v/v) FBS and maintained at 37° C. with 5% CO2. Unless otherwise specified, all cell culture materials were purchased from Gibco. It is not known whether HEK293T cells are from male or female origin.
(§2) Cells were washed twice with cold PBS, scraped, and pelleted by centrifugation (700 g, 5 min, 4° C.). Pellets were resuspended in PBS, sonicated, clarified by centrifugation (12,000 g, 10 min, 4° C.), and lysate was transferred to new low-adhesion microcentrifuge tubes. Proteome concentrations were determined using BCA assay and lysate was diluted to appropriate working concentrations.
(§3) Proteins were resolved by SDS/PAGE and transferred to nitrocellulose membranes using the Trans-Blot Turbo transfer system (Bio-Rad). Membranes were blocked with 5% BSA in Tris-buffered saline containing Tween 20 (TBS-T) solution for 30 min at RT, washed in TBS-T, and probed with primary antibody diluted in recommended diluent per manufacturer overnight at 4° C. After 3 washes with TBS-T, the membranes were incubated in the dark with IR680- or IR800-conjugated secondary antibodies at 1:10,000 dilution in 5% BSA in TBS-T at RT for 1 h. After 3 additional washes with TBST, blots were visualized using an Odyssey Li-Cor fluorescent scanner. The membranes were stripped using ReBlot Plus Strong Antibody Stripping Solution (EMD Millipore) when additional primary antibody incubations were performed. Antibodies used in this study were CDK4 (Abcam ab108357), Vinculin (Abcam ab129002), GAPDH (Cell Signaling Technology 14C10), RNF126 (Santa Cruz Biotechnology sc-376005), BRD4 (Abcam ab128874), Beta Actin (Cell Signaling Technology 13E5), PDE5 (Abcam ab259945), AR-V7 (Abcam ab273500), c-Abl (Santa Cruz Biotechnology sc-23), SMARCA2 (Abcam ab240648), LRRK2 (Abcam ab133474), BTK (Cell Signaling Technology D3H5), Androgen Receptor (Abcam ab133273).

A further assay addresses T2, BRD4 short (Homo sapiens, UniProt O60885).
T2 construct: endogenous in cells; host or cells: HEK293T
Put plainly: BRD4 (short) degradation assay, Western blotting. The format is cell-based. On the procedure: as §1, §2, §3
A general note: Immunoblotting shows a protein as a band on a membrane.

[1] abbreviates: first value of cell (long/short).
[2] abbreviates: second value of cell (long/short).
[3] abbreviates: first value of cell, range with lower bound in nM and upper bound in μM.
The mark [4] stands for this setting: second value of cell, range with lower bound in nM and upper bound in μM.

The source of these data is US20260200939A1, “MOLECULAR GLUE DEGRADER COMPOUNDS AND USES THEREOF” (Novartis AG, priority 2022, published 2026).

Where only a bound is given, the exact number is not on record here.

Regarding `Cc1sc2c(c1C)C(c1ccc(Cl)cc1)=N[C@@H](CC(=O)N1CCN(C(=O)/C=C/C(=O)c3ccc4c(c3)CCO4)CC1)c1nnc(C)n1-2` [Compound 210, (S,E)-1-(4-(2-(4-(4-chlorophenyl)-2,3,9-trimethyl-6H-thieno[3,2-f][1,2,4]triazolo[4,3-a][1,4]diazepin-6-yl)acetyl)piperazin-1-yl)-4-(2,3-dihydrobenzofuran-5-yl)but-2-ene-1,4-dione], the DC50 on BRD4 long (setting [1]) and at BRD4 short (setting [2]) was less than 100 nM throughout.
Consider `Cc1sc2c(c1C)C(c1ccc(Cl)cc1)=N[C@@H](CC(=O)N[C@H]1C[C@H](NC(=O)/C=C/C(=O)c3ccc4c(c3)CCO4)C1)c1nnc(C)n1-2` [Compound 211, (E)-N-((1S,3r)-3-(2-((S)-4-(4-chlorophenyl)-2,3,9-trimethyl-6H-thieno[3,2-f][1,2,4]triazolo[4,3-a][1,4]diazepin-6-yl)acetamido)cyclobutyl)-4-(2,3-dihydrobenzofuran-5-yl)-4-oxobut-2-enamide], for which the DC50 at BRD4 long (setting [1]) and on BRD4 short (setting [2]) was 10 to 100 nM in each case.
As for `COc1ccc(C(=O)/C=C/C(=O)N2C[C@H]3CN(C(=O)C[C@@H]4N=C(c5ccc(Cl)cc5)c5c(sc(C)c5C)-n5c(C)nnc54)[C@H]3C2)cc1` [Compound 212, (E)-1-((1S,5R)-6-(2-((S)-4-(4-chlorophenyl)-2,3,9-trimethyl-6H-thieno[3,2-f][1,2,4]triazolo[4,3-a][1,4]diazepin-6-yl)acetyl)-3,6-diazabicyclo[3.2.0]heptan-3-yl)-4-(4-methoxyphenyl)but-2-ene-1,4-dione], the results for the DC50 at BRD4 long (setting [3]) and at BRD4 short (setting [2]) were 100 to 1000 nM and 10 to 100 nM, respectively.
As to `COc1ccc(C(=O)/C=C/C(=O)N2C[C@@H]3CN(C(=O)C[C@@H]4N=C(c5ccc(Cl)cc5)c5c(sc(C)c5C)-n5c(C)nnc54)[C@@H]3C2)cc1` [Compound 213, (E)-1-((1R,5S)-6-(2-((S)-4-(4-chlorophenyl)-2,3,9-trimethyl-6H-thieno[3,2-f][1,2,4]triazolo[4,3-a][1,4]diazepin-6-yl)acetyl)-3,6-diazabicyclo[3.2.0]heptan-3-yl)-4-(4-methoxyphenyl)but-2-ene-1,4-dione], the DC50 on BRD4 long (setting [3]) and on BRD4 short (setting [4]) was 100 to 1000 nM in each case.
As for `COc1ccc(C(=O)/C=C/C(=O)N2CCN(C(=O)C[C@@H]3N=C(c4ccc(Cl)cc4)c4c(sc(C)c4C)-n4c(C)nnc43)C[C@@H]2C)cc1` [Compound 214, (E)-1-((S)-4-(2-((S)-4-(4-chlorophenyl)-2,3,9-trimethyl-6H-thieno[3,2-f][1,2,4]triazolo[4,3-a][1,4]diazepin-6-yl)acetyl)-2-methylpiperazin-1-yl)-4-(4-methoxyphenyl)but-2-ene-1,4-dione], the DC50 on BRD4 long (setting [1]) and at BRD4 short (setting [2]) was 10 to 100 nM in each case.
Regarding `COc1ccc(C(=O)/C=C/C(=O)N2[C@H](C)CN(C(=O)C[C@@H]3N=C(c4ccc(Cl)cc4)c4c(sc(C)c4C)-n4c(C)nnc43)C[C@@H]2C)cc1` [Compound 215, (E)-1-((2S,6R)-4-(2-((S)-4-(4-chlorophenyl)-2,3,9-trimethyl-6H-thieno[3,2-f][1,2,4]triazolo[4,3-a][1,4]diazepin-6-yl)acetyl)-2,6-dimethylpiperazin-1-yl)-4-(4-methoxyphenyl)but-2-ene-1,4-dione], the DC50 at BRD4 long (setting [1]) is less than 10 nM; on BRD4 short (setting [2]) it was 10 to 100 nM.
For `COc1ccc(C(=O)/C=C/C(=O)N2CCN(C(=O)C[C@@H]3N=C(c4ccc(Cl)cc4)c4c(sc(C)c4C)-n4c(C)nnc43)[C@@H](C)C2)cc1` [Compound 216, (E)-1-((S)-4-(2-((S)-4-(4-chlorophenyl)-2,3,9-trimethyl-6H-thieno[3,2-f][1,2,4]triazolo[4,3-a][1,4]diazepin-6-yl)acetyl)-3-methylpiperazin-1-yl)-4-(4-methoxyphenyl)but-2-ene-1,4-dione], in that order: less than 10 nM and less than 10 nM.
Consider `COc1ccc(C(=O)/C=C/C(=O)N2CCN(C(=O)C[C@@H]3N=C(c4ccc(Cl)cc4)c4c(sc(C)c4C)-n4c(C)nnc43)C[C@H]2C)cc1` [Compound 217, (E)-1-((R)-4-(2-((S)-4-(4-chlorophenyl)-2,3,9-trimethyl-6H-thieno[3,2-f][1,2,4]triazolo[4,3-a][1,4]diazepin-6-yl)acetyl)-2-methylpiperazin-1-yl)-4-(4-methoxyphenyl)but-2-ene-1,4-dione], for which the DC50 at BRD4 long (setting [1]) and at BRD4 short (setting [2]) was less than 10 nM each time.
`COc1ccc(C(=O)/C=C/C(=O)N2CCN(C(=O)C[C@@H]3N=C(c4ccc(Cl)cc4)c4c(sc(C)c4C)-n4c(C)nnc43)[C@H](C)C2)cc1` [Compound 218, (E)-1-((R)-4-(2-((S)-4-(4-chlorophenyl)-2,3,9-trimethyl-6H-thieno[3,2-f][1,2,4]triazolo[4,3-a][1,4]diazepin-6-yl)acetyl)-3-methylpiperazin-1-yl)-4-(4-methoxyphenyl)but-2-ene-1,4-dione]: the DC50 at BRD4 long (setting [1]) and on BRD4 short (setting [2]) was less than 10 nM in each case.
For the compound `COc1ccc(C(=O)/C=C/C(=O)N2CCCN(C(=O)C[C@@H]3N=C(c4ccc(Cl)cc4)c4c(sc(C)c4C)-n4c(C)nnc43)CC2)cc1` [Compound 219, (S,E)-1-(4-(2-(4-(4-chlorophenyl)-2,3,9-trimethyl-6H-thieno[3,2-f][1,2,4]triazolo[4,3-a][1,4]diazepin-6-yl)acetyl)-1,4-diazepan-1-yl)-4-(4-methoxyphenyl)but-2-ene-1,4-dione], the DC50 on BRD4 long (setting [3]) and at BRD4 short (setting [4]) was 100 to 1000 nM each time.
As for `COc1ccc(C(=O)/C=C/C(=O)N2CCN(C(=O)C[C@@H]3N=C(c4ccc(Cl)cc4)c4c(sc(C)c4C)-n4c(C)nnc43)CC23CC3)cc1` [Compound 221, (S,E)-1-(7-(2-(4-(4-chlorophenyl)-2,3,9-trimethyl-6H-thieno[3,2-f][1,2,4]triazolo[4,3-a][1,4]diazepin-6-yl)acetyl)-4,7-diazaspiro[2.5]octan-4-yl)-4-(4-methoxyphenyl)but-2-ene-1,4-dione], the DC50 on BRD4 long (setting [1]) and on BRD4 short (setting [2]) was 10 to 100 nM throughout.
Regarding `COc1ccc(C(=O)/C=C/C(=O)NC2CC(NC(=O)C[C@@H]3N=C(c4ccc(Cl)cc4)c4c(sc(C)c4C)-n4c(C)nnc43)C2)cc1` (stereo partly drawn) [Compound 222], the DC50 at BRD4 long (setting [1]) and at BRD4 short (setting [2]) was 1 to 10 nM each time.
`COc1ccc(C(=O)/C=C/C(=O)N[C@H]2C[C@H](NC(=O)C[C@@H]3N=C(c4ccc(Cl)cc4)c4c(sc(C)c4C)-n4c(C)nnc43)C2)cc1` [Compound 223, (E)-N-((1S,3r)-3-(2-((S)-4-(4-chlorophenyl)-2,3,9-trimethyl-6H-thieno[3,2-f][1,2,4]triazolo[4,3-a][1,4]diazepin-6-yl)acetamido)cyclobutyl)-4-(4-methoxyphenyl)-4-oxobut-2-enamide]: the 50% degradation concentration (DC50) was found to be 8 nM on BRD4 long (setting [1]) and 12 nM on BRD4 short (setting [2]).
The like results for `COc1ccc(C(=O)/C=C/C(=O)N2CCC3(CCN(C(=O)C[C@@H]4N=C(c5ccc(Cl)cc5)c5c(sc(C)c5C)-n5c(C)nnc54)C3)C2)cc1` (stereo partly drawn) [Compound 224, (E)-1-(7-(2-((S)-4-(4-chlorophenyl)-2,3,9-trimethyl-6H-thieno[3,2-f][1,2,4]triazolo[4,3-a][1,4]diazepin-6-yl)acetyl)-2,7-diazaspiro[4.4]nonan-2-yl)-4-(4-methoxyphenyl)but-2-ene-1,4-dione] were, in that order, 1 to 10 nM and 1 to 10 nM.
`COc1ccc(C(=O)/C=C/C(=O)N2CC3CCN(C(=O)C[C@@H]4N=C(c5ccc(Cl)cc5)c5c(sc(C)c5C)-n5c(C)nnc54)CC3C2)cc1` (stereo partly drawn) [Compound 225, (E)-1-(5-(2-((S)-4-(4-chlorophenyl)-2,3,9-trimethyl-6H-thieno[3,2-f][1,2,4]triazolo[4,3-a][1,4]diazepin-6-yl)acetyl)octahydro-2H-pyrrolo[3,4-c]pyridin-2-yl)-4-(4-methoxyphenyl)but-2-ene-1,4-dione]: the values for the DC50 at BRD4 long (setting [1]) and at BRD4 short (setting [4]) were less than 10 nM and 100 to 1000 nM, respectively.

In general, DC50 refers to the midpoint of the concentration-degradation curve. Read a low DC50 as degradation at low concentration.
